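The compound was tested at five concentrations on cells cultured in 96-well plates, with a 48-hour exposure period. Here, GI50 denotes the concentration required for 50% inhibition of growth.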 The source made the active and inactive calls. Cut-off read from the data, not from the text of the source: active = GI50 up to about 1.1 µM and inactive = higher.
What was measured:
Test in all cases: DTP human tumour cell line panel, 48 h
DMS-114 = test system: DMS-114
CAKI-1 = test system: CAKI-1
LXFL 529 = test system: LXFL 529
HOP-62 = test system: HOP-62
UO-31 = test system: UO-31
SF-539 = test system: SF-539
IGROV-1 = test system: IGROV-1
SNB-19 = test system: SNB-19
HCC 2998 = test system: HCC 2998
K562 = test system: K562
KM-20L2 = test system: KM-20L2
OVCAR-3 = test system: OVCAR-3
A549 = test system: A549
OVCAR-8 = test system: OVCAR-8
HCT-15 = test system: HCT-15
HT-29 = test system: HT-29
UACC-257 = test system: UACC-257
HL-60 = test system: HL-60
EKVX = test system: EKVX
SK-OV-3 = test system: SK-OV-3
RXF 631 = test system: RXF 631
HCT-116 = test system: HCT-116
NCI-H23 = test system: NCI-H23
ACHN = test system: ACHN
M14 = test system: M14
DMS-273 = test system: DMS-273
SF-295 = test system: SF-295
M19-MEL = test system: M19-MEL
A498 = test system: A498
SNB-75 = test system: SNB-75
RPMI-8226 = test system: RPMI-8226
HOP-18 = test system: HOP-18
UACC-62 = test system: UACC-62
786-0 = test system: 786-0
DLD-1 = test system: DLD-1
OVCAR-5 = test system: OVCAR-5
SW-620 = test system: SW-620
SF-268 = test system: SF-268
CCRF-CEM = test system: CCRF-CEM
NCI-H460 = test system: NCI-H460
KM12 = test system: KM12
U-251 = test system: U-251
SK-MEL-28 = test system: SK-MEL-28
COLO 205 = test system: COLO 205
NCI-H226 = test system: NCI-H226
SNB-78 = test system: SNB-78
SK-MEL-5 = test system: SK-MEL-5
HOP-92 = test system: HOP-92
Malme-3M = test system: Malme-3M
OVCAR-4 = test system: OVCAR-4
NCI-H522 = test system: NCI-H522
TK-10 = test system: TK-10
SN12C = test system: SN12C
LOX IMVI = test system: LOX IMVI
SK-MEL-2 = test system: SK-MEL-2
MOLT-4 = test system: MOLT-4
RXF 393 = test system: RXF 393
XF498 = test system: XF498

SMILES: COC(=O)C(C)Oc1ccc(O)cc1 (stereo not given)
- GI50 (DMS-114): 19.6 µM (inactive)
- GI50 (CAKI-1): > 100 µM (inactive)
- GI50 (LXFL 529): > 100 µM (inactive)
- GI50 (HOP-62): > 100 µM (inactive)
- GI50 (UO-31): > 100 µM (inactive)
- GI50 (SF-539): > 100 µM (inactive)
- GI50 (IGROV-1): > 100 µM (inactive)
- GI50 (SNB-19): > 100 µM (inactive)
- GI50 (HCC 2998): > 100 µM (inactive)
- GI50 (K562): > 100 µM (inactive)
- GI50 (KM-20L2): > 100 µM (inactive)
- GI50 (OVCAR-3): > 100 µM (inactive)
- GI50 (A549): 63 µM (inactive)
- GI50 (OVCAR-8): > 100 µM (inactive)
- GI50 (HCT-15): > 100 µM
- GI50 (HT-29): > 100 µM (inactive)
- GI50 (UACC-257): > 100 µM (inactive)
- GI50 (HL-60): > 100 µM (inactive)
- GI50 (EKVX): > 100 µM (inactive)
- GI50 (SK-OV-3): > 100 µM (inactive)
- GI50 (RXF 631): > 100 µM (inactive)
- GI50 (HCT-116): 20.9 µM (inactive)
- GI50 (NCI-H23): > 100 µM (inactive)
- GI50 (ACHN): > 100 µM (inactive)
- GI50 (M14): > 100 µM (inactive)
- GI50 (DMS-273): > 100 µM (inactive)
- GI50 (SF-295): > 100 µM (inactive)
- GI50 (M19-MEL): > 100 µM (inactive)
- GI50 (A498): > 100 µM (inactive)
- GI50 (SNB-75): > 100 µM (inactive)
- GI50 (RPMI-8226): > 100 µM (inactive)
- GI50 (HOP-18): > 100 µM (inactive)
- GI50 (UACC-62): > 100 µM (inactive)
- GI50 (786-0): > 100 µM (inactive)
- GI50 (DLD-1): > 100 µM (inactive)
- GI50 (OVCAR-5): > 100 µM (inactive)
- GI50 (SW-620): 34.9 µM (inactive)
- GI50 (SF-268): 20.6 µM (inactive)
- GI50 (CCRF-CEM): > 100 µM (inactive)
- GI50 (NCI-H460): > 100 µM (inactive)
- GI50 (KM12): > 100 µM (inactive)
- GI50 (U-251): > 100 µM (inactive)
- GI50 (SK-MEL-28): 29.2 µM (inactive)
- GI50 (COLO 205): > 100 µM (inactive)
- GI50 (NCI-H226): > 100 µM (inactive)
- GI50 (SNB-78): > 100 µM (inactive)
- GI50 (SK-MEL-5): > 100 µM (inactive)
- GI50 (HOP-92): > 100 µM (inactive)
- GI50 (Malme-3M): > 100 µM (inactive)
- GI50 (OVCAR-4): > 100 µM (inactive)
- GI50 (NCI-H522): > 100 µM (inactive)
- GI50 (TK-10): > 100 µM (inactive)
- GI50 (SN12C): > 100 µM (inactive)

SMILES: C(=C\c1csnn1)/c1cccnc1
- GI50 (DMS-114): > 100 µM (inactive)
- GI50 (LXFL 529): 75.7 µM (inactive)
- GI50 (HOP-62): > 100 µM (inactive)
- GI50 (LOX IMVI): > 100 µM (inactive)
- GI50 (UO-31): > 100 µM (inactive)
- GI50 (SF-539): > 100 µM (inactive)
- GI50 (SNB-19): > 100 µM (inactive)
- GI50 (HCC 2998): > 100 µM (inactive)
- GI50 (K562): > 100 µM (inactive)
- GI50 (KM-20L2): > 100 µM (inactive)
- GI50 (OVCAR-3): > 100 µM (inactive)
- GI50 (A549): > 100 µM (inactive)
- GI50 (OVCAR-8): > 100 µM (inactive)
- GI50 (HCT-15): > 100 µM
- GI50 (SK-MEL-2): > 100 µM (inactive)
- GI50 (HT-29): > 100 µM (inactive)
- GI50 (UACC-257): > 100 µM (inactive)
- GI50 (HL-60): > 100 µM (inactive)
- GI50 (EKVX): > 100 µM (inactive)
- GI50 (SK-OV-3): > 100 µM (inactive)
- GI50 (RXF 631): 81.7 µM (inactive)
- GI50 (MOLT-4): > 100 µM (inactive)
- GI50 (RXF 393): > 100 µM (inactive)
- GI50 (HCT-116): > 100 µM (inactive)
- GI50 (NCI-H23): > 100 µM (inactive)
- GI50 (ACHN): > 100 µM (inactive)
- GI50 (M14): > 100 µM (inactive)
- GI50 (SF-295): > 100 µM (inactive)
- GI50 (M19-MEL): > 100 µM (inactive)
- GI50 (A498): > 100 µM (inactive)
- GI50 (SNB-75): > 100 µM (inactive)
- GI50 (RPMI-8226): > 100 µM (inactive)
- GI50 (HOP-18): > 100 µM (inactive)
- GI50 (786-0): > 100 µM (inactive)
- GI50 (DLD-1): > 100 µM (inactive)
- GI50 (OVCAR-5): > 100 µM (inactive)
- GI50 (SW-620): > 100 µM (inactive)
- GI50 (SF-268): > 100 µM (inactive)
- GI50 (NCI-H460): > 100 µM (inactive)
- GI50 (KM12): > 100 µM (inactive)
- GI50 (U-251): > 100 µM (inactive)
- GI50 (SK-MEL-28): > 100 µM (inactive)
- GI50 (COLO 205): > 100 µM (inactive)
- GI50 (NCI-H226): > 100 µM (inactive)
- GI50 (SNB-78): > 100 µM (inactive)
- GI50 (Malme-3M): > 100 µM (inactive)
- GI50 (OVCAR-4): > 100 µM (inactive)
- GI50 (NCI-H522): > 100 µM (inactive)
- GI50 (TK-10): > 100 µM (inactive)
- GI50 (SN12C): > 100 µM (inactive)
- GI50 (XF498): > 100 µM (inactive)

SMILES: C[C@]12CC[C@H](OC3CCCCO3)CC1=CC[C@@H]1C2CC[C@]2(C)/C(=N/OCCC#N)CCC12 (stereo not given in full)
- GI50 (DMS-114): 4.76 µM (inactive)
- GI50 (CAKI-1): 45.8 µM (inactive)
- GI50 (LXFL 529): 17.7 µM (inactive)
- GI50 (HOP-62): > 100 µM (inactive)
- GI50 (LOX IMVI): 6.38 µM (inactive)
- GI50 (UO-31): 47.8 µM (inactive)
- GI50 (SF-539): 83.4 µM (inactive)
- GI50 (IGROV-1): > 100 µM (inactive)
- GI50 (SNB-19): 30.7 µM (inactive)
- GI50 (HCC 2998): > 100 µM (inactive)
- GI50 (K562): 6.95 µM (inactive)
- GI50 (KM-20L2): 3.78 µM (inactive)
- GI50 (OVCAR-3): 68.7 µM (inactive)
- GI50 (A549): 26.8 µM (inactive)
- GI50 (OVCAR-8): 34.2 µM (inactive)
- GI50 (HCT-15): > 100 µM
- GI50 (SK-MEL-2): 56.2 µM (inactive)
- GI50 (HT-29): 2.17 µM (inactive)
- GI50 (UACC-257): 6.62 µM (inactive)
- GI50 (EKVX): 19.2 µM (inactive)
- GI50 (SK-OV-3): 37.5 µM (inactive)
- GI50 (RXF 631): 33.6 µM (inactive)
- GI50 (RXF 393): 16 µM (inactive)
- GI50 (HCT-116): 5.73 µM (inactive)
- GI50 (NCI-H23): 11.4 µM (inactive)
- GI50 (ACHN): 33.8 µM (inactive)
- GI50 (M14): > 100 µM (inactive)
- GI50 (DMS-273): 76.7 µM (inactive)
- GI50 (SF-295): 21.3 µM (inactive)
- GI50 (M19-MEL): > 100 µM (inactive)
- GI50 (A498): > 100 µM (inactive)
- GI50 (SNB-75): 20.3 µM (inactive)
- GI50 (RPMI-8226): > 100 µM (inactive)
- GI50 (HOP-18): > 100 µM (inactive)
- GI50 (UACC-62): 97.1 µM (inactive)
- GI50 (786-0): 23.1 µM (inactive)
- GI50 (DLD-1): > 100 µM (inactive)
- GI50 (SW-620): > 100 µM (inactive)
- GI50 (NCI-H460): 15.2 µM (inactive)
- GI50 (KM12): > 100 µM (inactive)
- GI50 (U-251): 40.4 µM (inactive)
- GI50 (SK-MEL-28): > 100 µM (inactive)
- GI50 (SNB-78): 21.9 µM (inactive)
- GI50 (SK-MEL-5): 7.74 µM (inactive)
- GI50 (HOP-92): 21.9 µM (inactive)
- GI50 (Malme-3M): > 100 µM (inactive)
- GI50 (OVCAR-4): 18.9 µM (inactive)
- GI50 (NCI-H522): 18.5 µM (inactive)
- GI50 (TK-10): 24 µM (inactive)
- GI50 (SN12C): 64.7 µM (inactive)
- GI50 (XF498): 4.62 µM (inactive)

Source: ChEMBL document CHEMBL1201862, “PubChem BioAssay data set” (2004)
